The record followed here is patent US20120094958A1, “QUINOLINES AS INHIBITORS OF FARNESYL PYROPHOSPHATE SYNTHASE” (NOVARTIS AG, priority 2008, published 2012).

Where only a bound is given, the exact number is not on record here.

In general, IC50 refers to the concentration at which inhibition is half-maximal.

One test concerns the target T1, Recombinant human Farnesyl Pyrophosphate synthase (FPPS) (Homo sapiens, UniProt P14324).
T1 construct: made in house
T1 sequence (P14324 1-353 isoform P14324-2): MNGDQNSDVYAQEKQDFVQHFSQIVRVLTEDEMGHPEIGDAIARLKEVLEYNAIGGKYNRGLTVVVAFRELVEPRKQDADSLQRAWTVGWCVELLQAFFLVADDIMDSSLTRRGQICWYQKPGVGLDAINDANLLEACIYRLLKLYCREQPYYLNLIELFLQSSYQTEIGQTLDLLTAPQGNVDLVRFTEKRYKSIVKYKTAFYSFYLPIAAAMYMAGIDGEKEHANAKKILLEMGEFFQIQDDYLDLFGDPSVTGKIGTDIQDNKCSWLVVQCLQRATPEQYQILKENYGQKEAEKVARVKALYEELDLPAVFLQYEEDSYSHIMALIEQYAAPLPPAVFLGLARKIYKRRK
Briefly: FPPS enzyme assay, scintillation proximity (FlashPlate). Type of test: biochemical.
Conditions: not given
For the compound `O=C(O)c1ccc2cccc(-c3cccc4[nH]ccc34)c2n1` [Example 2.a.ii], the IC50 stood at 6.5 µM. Still for that read-out and setting: the figure for `CCOP(=O)(Cc1ccc2cccc(-c3cccc4ccccc34)c2n1)OCC` [Example 11.6, (8-Naphthalen-1-yl-quinolin-2-ylmethyl)-phosphonic acid diethyl ester] is over 100 µM.

The test is the same for the next values; noted with them: FlashPlate SPA; GPP 150 nM, [3H]-IPP 150 nM, FPPS 500 pM, 45 minutes at room temperature; highest concentration tested 100 μM; read-out: FPPS IC50.
In the case of `COC(=O)C(CNC(=O)c1ccc2cccc(-c3cccc4ccccc34)c2n1)NS(=O)(=O)NC(=O)OC(C)(C)C` (racemic) [Example 13, rac. 2-[(tert-Butoxycarbonylamino-sulfonyl)-amino]-3-[(8-naphthalen-1-yl-quinoline-2-carbonyl)-amino]-propionic acid methyl ester], the IC50 was 13.5 µM. Take `COC(=O)C(CNC(=O)c1ccc2cccc(-c3cccc4ccccc34)c2n1)NS(N)(=O)=O` (racemic) [Example 14, rac. 2-[(Amino-sulfonyl)-amino]-3-[(8-naphthalen-1-yl-quinoline-2-carbonyl)amino]-propionic acid methyl ester]: the IC50 worked out at 39.7 µM. For `O=C(NCC1NS(=O)(=O)NC1=O)c1ccc2cccc(-c3cccc4ccccc34)c2n1` (racemic) [Example 15.a, rac. 8-Naphthalen-1-yl-quinoline-2-carboxylic acid (1,1,4-trioxo-1lambda*6*-[1,2,5]thiadiazolidin-3-ylmethyl)-amide], the IC50 is over 100 µM. On to `O=C(O)c1ccc2cccc(-c3cccc4ccccc34)c2n1` [Example 1, 8-Naphthalen-1-quinoline-2-carboxylic acid], for which the IC50 was found to be 0.52 µM. On the same count and under the same terms, the figure for `O=C(OCc1ccccc1)c1ccc2cccc(-c3cccc4cnccc34)c2n1` [Example 2.b.i] is over 10 µM; for `O=C(OCc1ccccc1)c1ccc2cccc(-c3cccc4ncccc34)c2n1` [Example 2.c.i] it is over 10 µM; for `O=C(O)c1ccc2cccc(-c3cccc4ncccc34)c2n1` [Example 2.c.ii] it is 2.7 µM. For the compound `O=C(OCc1ccccc1)c1ccc2cccc(-c3cccc4c3CCCC4=O)c2n1` [Example 2.d.i], the IC50 is over 10 µM. Turning to `O=C(OCc1ccccc1)c1ccc2cccc(-c3cccc4[nH]c(=O)ccc34)c2n1` [Example 2.g.i], the IC50 was 19.7 µM. On to `O=C(O)c1ccc2cccc(-c3cccc4[nH]c(=O)ccc34)c2n1` [Example 2.g.ii], for which the IC50 is over 100 µM. As for `O=C(NCP(=O)(O)O)c1ccc2cccc(-c3cccc4ccccc34)c2n1` [Example 3, {[(8-Naphthalen-1-yl-quinoline-2-carbonyl)-amino]-methyl}-phosphonic acid], the IC50 amounted to 40.3 µM. Same read-out and setting: then `O=P(O)(O)CNc1ccc2cccc(-c3cccc4ccccc34)c2n1` [Example 5, [(8-Naphthalen-1-yl-quinolin-2-ylamino)-methyl]-phosphonic acid], with 4.1 µM.

For the compound `O=[N+]([O-])c1cc(-c2cccc3ccccc23)c2nc(NCP(=O)(O)O)ccc2c1` [Example 6, [(6-Nitro-8-naphthalen-1-yl-quinolin-2-ylamino)-methyl]-phosphonic acid], the IC50 worked out at 14 µM. Take `O=P(O)(O)CNc1ccc2cc(-c3cc[nH]c3)cc(-c3cccc4ccccc34)c2n1` [Example 9, {[8-Naphthalen-1-yl-6-(1H-pyrrol-3-yl)-quinolin-2-ylamino]-methyl}-phosphonic acid]: the IC50 was 21.5 µM.

For `CCOP(=O)(CNc1ccc2cc(-c3ccn([Si](C(C)C)(C(C)C)C(C)C)c3)cc(-c3cccc4ccccc34)c2n1)OCC` [Example 9.1, {[8-Naphthalen-1-yl-6-(1-triisopropylsilanyl-1H-pyrrol-3-yl)-quinolin-2-ylamino]-methyl}-phosphonic acid diethyl ester], the IC50 is over 100 µM. As to `O=P(O)(O)CNc1ccc2cc(-c3cccnc3)cc(-c3cccc4ccccc34)c2n1` [Example 10, [(8-Naphthalen-1-yl-6-pyridin-3-yl-quinolin-2-ylamino)-methyl]-phosphonic acid], the IC50 came out at 2.8 µM. In the case of `CCOP(=O)(CNc1ccc2cc(-c3cccnc3)cc(-c3cccc4ccccc34)c2n1)OCC` [Example 10.1, [(8-Naphthalen-1-yl-6-pyridin-3-yl-quinolin-2-ylamino)-methyl]-phosphonic acid diethyl ester], the IC50 stood at 2.8 µM.

Regarding `O=P(O)(O)Cc1ccc2cccc(-c3cccc4ccccc34)c2n1` [Example 11, (8-Naphthalen-1-yl-quinolin-2-ylmethyl)-phosphonic acid], the IC50 was determined as 7.9 µM. For `O=P(O)(O)CNCc1ccc2cccc(-c3cccc4ccccc34)c2n1` [Example 12, {[(8-Naphthalen-1-yl-quinolin-2-ylmethyl)-amino]-methyl}-phosphonic acid], the IC50 is over 100 µM. Take `O=C(O)c1ccc2cc(-c3ccc[nH]3)cc(-c3cccc4ccccc34)c2n1` [Example 36, 8-Naphthalen-1-yl-6-pyrrol-2-yl-quinoline-2-carboxylic acid]: the IC50 was 0.14 µM.

In the case of `O=P(O)(O)/C=C/c1ccc2cccc(-c3cccc4ccccc34)c2n1` [Example 40, [(E)-2-(8-Naphthalen-1-yl-quinolin-2-yl)-vinyl]-phosphonic acid], the IC50 was 0.007 µM. Regarding `O=P(O)(O)CCc1ccc2cccc(-c3cccc4ccccc34)c2n1` [Example 41, [2-(8-Naphthalen-1-yl-quinolin-2-yl)-ethyl]-phosphonic acid], the IC50 came out at 2.3 µM. Turning to `O=C(O)c1ccc2cc(Cl)cc(-c3cccc4ccccc34)c2n1` [Example 54, 6-Chloro-8-naphthalen-1-yl-quinoline-2-carboxylic acid], the IC50 worked out at 0.34 µM. On the same count and under the same terms, then “rac. 2-[(amino-sulfonyl)-amino]-3-[(8-naphthalen-1-yl-quinoline-2-carbonyl)-amino]-propionic acid [Example 15.b]”, with 54.3 µM.

For a further test, the target named is T2, FPPS (Farnesyl pyrophosphate synthase) (Homo sapiens, UniProt P14324).
T2 sequence (P14324 1-353 isoform P14324-2): T1 sequence (P14324 1-353 isoform P14324-2)
The test can be described thus: FPPS Assay: LC-MS Method. Type of test: biochemical. The note with it: GPP/IPP 5 μM each, reaction stopped after 10 minutes. The procedure:
Recombinant human Farnesyl Pyrophosphate synthase (FPPS) was cloned, expressed and purified as previously described {J.-M. Rondeau et al., ChemMedChem 2006, 1, 267-271.} and stored as a 10 mg/mL stock solution in 25 mM Tris pH 7.4, 25 mM NaCl, 2 mM DTT (dithiothreitol). Geranyl pyrophosphate (GPP) was purchased from Anawa AG (Switzerland) and stored as a 1 mg/mL solution in 4 parts isopropanol:3 parts ammonia:1 part water. 1-[^3H]Isopentenyl pyrophosphate (IPP), 50 Ci/mmol; 1 Ci/mL, was purchased from Anawa AG and stored in ethanol:ammonia hydroxide 1:1 at −80 C. 1-[^3H] Farnesyl pyrophosphate triammonium salt, 100 Ci/mmol; 1 mCi/mL in 70% ethanol, 0.25 M ammonium bicarbonate was purchased from Anawa AG. Phospholipid-coated 384-well image FlashPlates™ were purchased from PerkinElmer. the assay buffer consisted of 20 mM HEPES pH7.4, 5 mM MgCl2 and 1 mM CaCl2.
Selected compounds are assayed in another FPPS based assay:
Into each well of a 384-well plate, 5 μL of compound in 20% DMSO/water is placed. 25 μL of GPP/IPP (5 μM each in assay buffer) is then added. The reaction is started with the addition of 10 μL of FPPS (diluted 1 to 10000 with assay buffer). After 10 minutes, the reaction is stopped by addition of 10 μL of 2 μM FSPP in 2% DMIPA/IPA. The reaction mixture is then extracted with 50 μL of n-pentanol using vortex mixing. After phase separation, 25 μL of the upper (n-pentanol) layer is transferred to a new 384-well plate and the pentanol is evaporated using a vacuum centrifuge. The dried residue is reconstituted in 50 μL of 0.1% DMIPA/water for analysis by the LC/MS/MS method.
LC/MS/MS analyses are performed on a Micromass Quattro Micro interfaced to an Agilent 1100 binary LC pump. Injection is performed by a Gilson 215/889 autosampler using an injection loop size of 2.5 μL. Chromatography is performed on a Waters 2.1×20 mm Xterra MS C18 5 μm guard column (P/N186000652) contained in a guard column holder (P/N 186000262) using 0.1% DMIPA/methanol as solvent A and 0.1% DMIPA/water as solvent B. The gradient is 5% A from 0.00 to 0.30 min, 50% A at 0.31 min, 80% A at 1.00 min, and 5% A from 1.01 to 2.00 min. The flow rate is 0.3 mL/min and the flow is diverted to waste from 0.00 to 0.50 min and again from 1.20 to 2.00 min.
The MRM transitions monitored are 381^−>79^− for FPP and 397^−>159^− for FSPP at a collision energy of 22 eV and a collision cell pressure of 2.1×10^−3 mbar of Ar. The dwell time per transition is 400 msec with a span of 0.4 Da. The interchannel delay and interscan delay are both 0.02 sec. Other mass spectrometric operating parameters are: capillary, 2.0 kV; cone, 35 V; extractor, 2.0 V, source temp., 100° C.; desolvation gas temp., 250° C.; desolvation gas flow, 650 L/hr; cone gas flow, 25 L/hr; multiplier, 650 V.
The total cycle time per sample is 2.5 minutes. Since the analysis is formatted for 384-well plates, a plate is analyzed in 16 hours. The chromatograms are processed using Quanlynx software, which divides the area of individual FPP peaks by the area of the FSPP peaks (internal standard). The resulting values are reported as the relative response for the corresponding sample well.
In turn, `O=P(O)(O)c1ccc2cc(-c3cccs3)cc(-c3cccc4ccccc34)c2n1` [Example 17, (8-Naphthalen-1-yl-6-thiophen-2-yl-quinolin-2-yl)-phosphonic acid] showed an IC50 of 0.266 µM. `O=P(O)(O)c1ccc2cc(I)cc(-c3cccc4ccccc34)c2n1` [Example 21, (6-Iodo-8-naphthalen-1-yl-quinolin-2-yl)-phosphonic acid] came in with an IC50 of 0.507 µM. As to `O=P(O)(O)c1ccc2cc(-c3ccsc3)cc(-c3cccc4ccccc34)c2n1` [Example 27c.ii], it took 0.205 µM to reach half-maximal inhibition (IC50).

As to `O=P(O)(O)c1ccc2cc(-c3ccco3)cc(-c3cccc4ccccc34)c2n1` [Example 27d.ii], the IC50 stood at 0.9 µM. `O=P(O)(O)c1ccc2cc(-c3ccc4c(c3)OCO4)cc(-c3cccc4ccccc34)c2n1` [Example 27f.ii] gave an IC50 of 0.977 µM.

In the case of `O=P(O)(O)c1ccc2cc(-c3cccc(O)c3)cc(-c3cccc4ccccc34)c2n1` [Example 28, [6-(3-Hydroxy-phenyl)-8-naphthalen-1-yl-quinolin-2-yl]-phosphonic acid], half-maximal inhibition (IC50) was put at 0.606 µM.
